From BindingDB's records for patent US12065430 (Taiho Pharmaceutical, 2024)

Molecular target: T1, Son of sevenless homolog 1 [564-1049]/GTPase KRas [G12C] (UniProt P01116+Q07889, G12C)
T1 construct: 564-1049
Assay: Evaluation of Inhibitory Activity of Compounds on KRAS G12C Nucleotide (GDP-GTP) Exchange Reaction
Method: The inhibitory activity of compounds on exchange reaction of GDP into GppNHp in Bodipy (trademark) FL-bound KRAS G12C was examined by fluorescence measurement using human recombinant KRAS G12C and SOS1 proteins.For the preparation of KRAS G12C to which Bodipy FL GDP was bound, first, […] KRAS G12C (amino acid region: 1-169) and 1 mM Bodipy FL GDP (Invitrogen, G22360) were incubated for 1 hour in a buffer (20 mM Tris-HCl (pH 7.5), 50 mM NaCl, 1 mM DTT) in ice in the presence of 2.5 mM EDTA. Thereafter, MgCl2 with a final concentration of 10 mM was added, and the mixture was incubated at room temperature for 30 minutes. The protein was allowed to pass through a NAP-5 column to remove free nucleotides and was used for compound evaluation.For the measurement of the inhibitory activity of compounds on nucleotide exchange reaction, first, the compound of the present invention was diluted stepwise with dimethyl sulfoxide (DMSO). Subsequently, a solution of the gradually diluted compound of the present invention in DMSO (the final concentration of DMSO: 5%) and KRAS G12C (25 nM) bound to Bodipy FL GDP were added to a reaction buffer (20 mM Tris-HCl (pH 7.5), 100 mM NaCl, 1 mM MgCl2, 2 mM DTT, 0.1% Tween20), followed by preincubation at 25° C. for 4 hours. Thereafter, Son of Sevenless Homolog 1 (SOS1, amino acid region: 564-1049) and GppNHp (GMPPNP, Jena Bioscience GmbH, NU-401-50) were added such that their final concentration was 100 nM and 1 μM respectively, followed by reaction for 30 minutes. The change in fluorescence intensity of Bodipy FL (excitation wavelength: 485 nm, fluorescence wavelength: 520 nm) immediately after the start of reaction and after 30 minutes from the start of reaction was standardized. The signal value for only DMSO was determined to be 0% inhibition, and the signal value for no addition of GppNHp was determined to be 100% inhibition. The compound concentration at which 50% inhibition is achieved was determined to be IC50 (nM), and was calculated.

T1 sequence (P01116 whole entry G12C): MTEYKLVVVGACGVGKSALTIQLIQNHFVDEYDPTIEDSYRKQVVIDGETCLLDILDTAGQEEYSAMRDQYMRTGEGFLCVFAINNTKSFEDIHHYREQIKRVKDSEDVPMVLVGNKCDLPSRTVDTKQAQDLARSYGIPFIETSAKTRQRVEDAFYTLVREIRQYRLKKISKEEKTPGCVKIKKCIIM
T1 sequence (Q07889 564-1049): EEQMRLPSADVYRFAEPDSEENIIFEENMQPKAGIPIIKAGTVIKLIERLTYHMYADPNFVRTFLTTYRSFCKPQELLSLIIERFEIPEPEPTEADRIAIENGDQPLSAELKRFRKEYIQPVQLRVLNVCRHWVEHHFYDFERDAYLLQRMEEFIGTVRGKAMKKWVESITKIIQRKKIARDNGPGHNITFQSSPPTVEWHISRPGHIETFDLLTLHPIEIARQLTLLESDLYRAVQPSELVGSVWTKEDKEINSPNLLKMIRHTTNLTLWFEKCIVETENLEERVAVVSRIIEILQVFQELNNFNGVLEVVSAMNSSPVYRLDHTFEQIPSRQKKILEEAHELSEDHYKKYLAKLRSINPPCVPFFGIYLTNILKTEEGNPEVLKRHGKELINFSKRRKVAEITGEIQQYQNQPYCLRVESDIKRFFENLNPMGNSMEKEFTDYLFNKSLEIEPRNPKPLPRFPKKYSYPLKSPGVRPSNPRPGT

IC50 [nM]	Compound
36	C=CC(=O)N1C[C@@H](C)[C@@H](NC(=O)c2c(F)nc(CNc3n[nH]c4cc(Cl)c(C(C)(C)C)cc34)n2C)C1 [US12065430, Example 74]
16	C=CC(=O)N1C[C@H](NC(=O)c2c(F)nc(CNc3n[nH]c4cc(Cl)c(C(C)(C)C)cc34)n2C)[C@@H](F)C1 [US12065430, Example 75]
13	C=CC(=O)N1C[C@H](NC(=O)c2c(Cl)nc(CNc3n[nH]c4cc(Cl)c(C(C)(C)C)cc34)n2C)[C@@H](F)C1 [US12065430, Example 76]
142	C=CC(=O)N1CC[C@@H](N(C)C(=O)c2cnc(CNc3n[nH]c4cc(Cl)c(C(C)(C)C)cc34)n2C)C1 [US12065430, Example 77]
20	C=CC(=O)N1C[C@@H](C)[C@@H](NC(=O)c2c(Cl)nc(CNc3n[nH]c4cc(Cl)c(C(C)(C)C)cc34)n2C)C1 [US12065430, Example 78]
2630	C/C=C/C(=O)N1CC(NC(=O)c2c(C)nc(CNc3n[nH]c4cc(Cl)c(C(C)(C)C)cc34)n2C(C)C)C1 [US12065430, Example 81]
209	CC#CC(=O)N1CC(NC(=O)c2c(C)nc(CNc3n[nH]c4cc(Cl)c(C(C)(C)C)cc34)n2C(C)C)C1 [US12065430, Example 82]
2350	Cc1nc(CNc2n[nH]c3cc(Cl)c(C(C)(C)C)cc23)n(C(C)C)c1C(=O)NC1CN(C(=O)/C=C\Cl)C1 [US12065430, Example 83]
63	CC(C)n1c(CNc2n[nH]c3cc(Cl)c(C(C)(C)C)cc23)nc(C(F)F)c1C(=O)NC1CN(C(=O)/C=C/CN(C)C)C1 [US12065430, Example 84]
58	C=CS(=O)(=O)N1CC(NC(=O)c2c(C)nc(CNc3n[nH]c4cc(Cl)c(C(C)(C)C)cc34)n2C(C)C)C1 [US12065430, Example 86]
14	C=CC(=O)N1CC(NC(=O)c2c(Cl)nc(CNc3n[nH]c4cc(Cl)c(C(C)(C)C)cc34)n2CCCC)C1 [US12065430, Example 87]
7	C=CC(=O)N1CC(NC(=O)c2c(Cl)nc(CNc3n[nH]c4cc(Cl)c(C(C)(C)C)cc34)n2CC(C)C)C1 [US12065430, Example 89]
6	C=CC(=O)N1CC(NC(=O)c2c(Cl)nc(CNc3n[nH]c4cc(Cl)c(C(C)(C)C)cc34)n2CCOC)C1 [US12065430, Example 90]
7	C=CC(=O)N1CC(NC(=O)c2c(C(F)F)nc(CNc3n[nH]c4cc(Cl)c(C(C)(C)C)cc34)n2C2CCN(C)C2)C1 (stereo unspecified) [US12065430, Example 91]
10	C=CC(=O)N1CC(NC(=O)c2c(C(F)F)nc(CNc3n[nH]c4cc(Cl)c(C(C)(C)C)cc34)n2C2CCN(CC)C2)C1 (stereo unspecified) [US12065430, Example 92]
118	C=CC(=O)N1CC(NC(=O)c2c(Cl)nc(CNc3n[nH]c4cc(Cl)c(C(C)(C)C)cc34)n2-c2ccccn2)C1 [US12065430, Example 94]
44	C=CC(=O)N1CC(NC(=O)c2c(C(F)F)nc(CNc3n[nH]c4cc(Cl)c(C(C)(C)C)cc34)n2CC2CCCN2C(C)C)C1 (stereo unspecified) [US12065430, Example 95]
4	C=CC(=O)N1CC(NC(=O)c2c(C(F)F)nc(CNc3n[nH]c4cc(Cl)c(C(C)(C)C)cc34)n2C2CCN(C(C)=O)C2)C1 (stereo unspecified) [US12065430, Example 96]
7	C=CC(=O)N1CC(NC(=O)c2c(Cl)nc(CNc3n[nH]c4cc(Cl)c(C(C)(C)C)cc34)n2C2CC=CC2)C1 [US12065430, Example 98]
7	C=CC(=O)N1CC(NC(=O)c2c(Cl)nc(CNc3n[nH]c4cc(Cl)c(C(C)(C)C)cc34)n2[C@@H]2C[C@@H](O)[C@@H](O)C2)C1 [US12065430, Example 99]

IC50 [nM]	Compound
14	C=CC(=O)N1CC(NC(=O)c2c(Cl)nc(CNc3n[nH]c4cc(Cl)c(C(C)(C)C)cc34)n2CC(F)F)C1 [US12065430, Example 100]
7	C=CC(=O)N1CC(NC(=O)c2c(Cl)nc(CNc3n[nH]c4cc(Cl)c(C(C)(C)C)cc34)n2C2CCOCC2)C1 [US12065430, Example 101]
5	C=CC(=O)N1CC(NC(=O)c2c(Cl)nc(CNc3n[nH]c4cc(Cl)c(C(C)(C)C)cc34)n2C2CCN(C)CC2)C1 [US12065430, Example 103]
9	C=CC(=O)N1CC(NC(=O)c2c(Cl)nc(CNc3n[nH]c4cc(Cl)c(C(C)(C)C)cc34)n2C2CCCOC2)C1 (stereo unspecified) [US12065430, Example 104]
8	C=CC(=O)N1CC(NC(=O)c2c(Cl)nc(CNc3n[nH]c4cc(Cl)c(C(C)(C)C)cc34)n2C2CCCC2)C1 [US12065430, Example 105]
8	C=CC(=O)N1CC(NC(=O)c2c(Cl)nc(CNc3n[nH]c4cc(Cl)c(C(C)(C)C)cc34)n2C2CN(C(=O)OC(C)(C)C)C2)C1 [US12065430, Example 106]
9	C=CC(=O)N1CC(NC(=O)c2c(Cl)nc(CNc3n[nH]c4cc(Cl)c(C(C)(C)C)cc34)n2C2CN(C(C)=O)C2)C1 [US12065430, Example 108]
23	C=CC(=O)N1CC(NC(=O)c2c(Cl)nc(CNc3n[nH]c4cc(Cl)c(C(C)(C)C)cc34)n2C2CCCCC2)C1 [US12065430, Example 109]
9	C=CC(=O)N1CC(NC(=O)c2c(Cl)nc(CNc3n[nH]c4cc(Cl)c(C(C)(C)C)cc34)n2CC2CCCC2)C1 [US12065430, Example 110]
15	C=CC(=O)N1CC(NC(=O)c2c(Cl)nc(CNc3n[nH]c4cc(Cl)c(C(C)(C)C)cc34)n2[C@H]2C[C@H](C)CC[C@H]2C(C)C)C1 [US12065430, Example 111]
9	C=CC(=O)N1CC(NC(=O)c2c(Cl)nc(CNc3n[nH]c4cc(Cl)c(C(C)(C)C)cc34)n2C2CCCN(CC(F)F)C2)C1 (stereo unspecified) [US12065430, Example 117]
5	C=CC(=O)N1CC(NC(=O)c2c(Cl)nc(CNc3n[nH]c4cc(Cl)c(C(C)(C)C)cc34)n2C2CCCN(C)C2)C1 (stereo unspecified) [US12065430, Example 118]
11	C=CC(=O)N1CC(NC(=O)c2c(Cl)nc(CNc3n[nH]c4cc(Cl)c(C(C)(C)C)cc34)n2[C@@H]2CCN(CCOC)C2)C1 [US12065430, Example 119]
6	C=CC(=O)N1CC(NC(=O)c2c(Cl)nc(CNc3n[nH]c4cc(Cl)c(C(C)(C)C)cc34)n2[C@@H]2CCN(C3CC3)C2)C1 [US12065430, Example 120]
5	C=CC(=O)N1CC(NC(=O)c2c(Cl)nc(CNc3n[nH]c4cc(Cl)c(C(C)(C)C)cc34)n2[C@@H]2CCN(C3COC3)C2)C1 [US12065430, Example 121]
6	C=CC(=O)N1CC(NC(=O)c2c(Cl)nc(CNc3n[nH]c4cc(Cl)c(C(C)(C)C)cc34)n2[C@@H]2CCN(Cc3ccccc3)C2)C1 [US12065430, Example 122]
9	C=CCN1CC[C@@H](n2c(CNc3n[nH]c4cc(Cl)c(C(C)(C)C)cc34)nc(Cl)c2C(=O)NC2CN(C(=O)C=C)C2)C1 [US12065430, Example 123]
6	C=CC(=O)N1CC(NC(=O)c2c(Cl)nc(CNc3n[nH]c4cc(Cl)c(C(C)(C)C)cc34)n2[C@@H]2CCN(c3ccccn3)C2)C1 [US12065430, Example 124]
13	C=CC(=O)N1CC(NC(=O)c2c(Cl)nc(CNc3n[nH]c4cc(Cl)c(C(C)(C)C)cc34)n2[C@@H]2CCN(CC(F)F)[C@H]2C)C1 [US12065430, Example 125]
4	C=CC(=O)N1CC(NC(=O)c2c(Cl)nc(CNc3n[nH]c4cc(Cl)c(C(C)(C)C)cc34)n2[C@@H]2C[C@@H](C)N(CC(F)F)C2)C1 [US12065430, Example 126]

Compound	IC50 [nM]
C=CC(=O)N1CC(NC(=O)c2c(C(F)F)nc(CNc3n[nH]c4cc(Cl)c(C(C)(C)C)cc34)n2C2CCN(C(C)C)C2)C1 (stereo unspecified) [US12065430, Example 93]	6
